tested on: barnyardgrass (Ec); assay: Test Example 3: herbicidal effects by upland field foliage treatment; assay type: in vivo; parameters: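 grade of growth control; 5 = at least 90%; 4 = 70 to 90%; 3 = 50 to 70%; 2 = 30 to 50%; 1 = 10 to 30%; 0 = under 10%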; conditions: 100 g active ingredient per 10 ares, evaluated 14th day after treatment
How it was run: (§1)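 Two-week-old greenhouse seedlings, raised in sand-filled pots (120 cm^2) with seed covered by soil, receive a foliar application. Effects are then evaluated by standard grades 14 days later, plants remaining in the greenhouse meanwhile.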

Structure (SMILES)	Herbicidal effects Ec
C#CCOc1cc(Cl)cc(F)c1-c1ccc(C(F)(F)F)n(C)c1=O [1′-4]	5

tested on: slender amaranth (Am); assay: as above; assay type: in vivo; parameters: scale not given here; conditions: 100 g active ingredient per 10 ares, evaluated 14th day after treatment
How it was run: as §1

Structure (SMILES)	Herbicidal effects Am
C#CCOc1cc(Cl)cc(F)c1-c1ccc(C(F)(F)F)n(C)c1=O [1′-4]	5

tested on: common lambsquarters (Ch); assay: as above; assay type: in vivo; parameters: scale not given here; conditions: 100 g active ingredient per 10 ares, evaluated 14th day after treatment
How it was run: as §1

Structure (SMILES)	Herbicidal effects Ch
C#CCOc1cc(Cl)cc(F)c1-c1ccc(C(F)(F)F)n(C)c1=O [1′-4]	5

tested on: rice flatsedge (Ci); assay: as above; assay type: in vivo; parameters: scale not given here; conditions: 100 g active ingredient per 10 ares, evaluated 14th day after treatment
How it was run: as §1

Structure (SMILES)	Herbicidal effects Ci
C#CCOc1cc(Cl)cc(F)c1-c1ccc(C(F)(F)F)n(C)c1=O [1′-4]	5

tested on: Diaitaria ciliaris (Di); assay: as above; assay type: in vivo; parameters: scale not given here; conditions: 100 g active ingredient per 10 ares, evaluated 14th day after treatment
How it was run: as §1

Structure (SMILES)	Herbicidal effects Di
C#CCOc1cc(Cl)cc(F)c1-c1ccc(C(F)(F)F)n(C)c1=O [1′-4]	5

tested on: pale smartweed (Po); assay: as above; assay type: in vivo; parameters: scale not given here; conditions: 100 g active ingredient per 10 ares, evaluated 14th day after treatment
How it was run: as §1

Structure (SMILES)	Herbicidal effects Po
C#CCOc1cc(Cl)cc(F)c1-c1ccc(C(F)(F)F)n(C)c1=O [1′-4]	5

tested on: soybean (Gl); assay: Test Example 6: crop plant selectivity by upland field soil treatment (soybean), phytotoxicity; assay type: in vivo; parameters: scale not given here; conditions: dose 6.3 g ai/10a, 21st day after application
How it was run: (§2)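 Greenhouse pot test with soil-applied compound after sowing soybean and weeds in sand; effects graded on day 21 after application.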

Structure (SMILES)	Phytotoxicity Gl
C#CCOc1cc(Cl)cc(F)c1-c1ccc(C(F)(F)F)n(C)c1=O [1′-4]	1

tested on: slender amaranth (Am); assay: Test Example 6: crop plant selectivity by upland field soil treatment (soybean), herbicidal effects; assay type: in vivo; parameters: scale not given here; conditions: dose 6.3 g ai/10a, 21st day after application
How it was run: as §2

Structure (SMILES)	Herbicidal effects Am
C#CCOc1cc(Cl)cc(F)c1-c1ccc(C(F)(F)F)n(C)c1=O [1′-4]	5

tested on: common lambsquarters (Ch); assay: as above; assay type: in vivo; parameters: scale not given here; conditions: dose 6.3 g ai/10a, 21st day after application
How it was run: as §2

Structure (SMILES)	Herbicidal effects Ch
C#CCOc1cc(Cl)cc(F)c1-c1ccc(C(F)(F)F)n(C)c1=O [1′-4]	5

tested on: green foxtail (Se); assay: as above; assay type: in vivo; parameters: scale not given here; conditions: dose 6.3 g ai/10a, 21st day after application
How it was run: as §2

Structure (SMILES)	Herbicidal effects Se
C#CCOc1cc(Cl)cc(F)c1-c1ccc(C(F)(F)F)n(C)c1=O [1′-4]	5

tested on: China jute (Ab); assay: as above; assay type: in vivo; parameters: scale not given here; conditions: dose 6.3 g ai/10a, 21st day after application
How it was run: as §2

Structure (SMILES)	Herbicidal effects Ab
C#CCOc1cc(Cl)cc(F)c1-c1ccc(C(F)(F)F)n(C)c1=O [1′-4]	5

tested on: pale smartweed (Po); assay: as above; assay type: in vivo; parameters: scale not given here; conditions: dose 6.3 g ai/10a, 21st day after application
How it was run: as §2

Structure (SMILES)	Herbicidal effects Po
C#CCOc1cc(Cl)cc(F)c1-c1ccc(C(F)(F)F)n(C)c1=O [1′-4]	5

tested on: slender amaranth (Am); assay: Test Example 5: crop plant selectivity by upland field soil treatment (wheat), herbicidal effects; assay type: in vivo; parameters: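 grade of growth control; 5 = at least 90%; 4 = 70 to 90%; 3 = 50 to 70%; 2 = 30 to 50%; 1 = 10 to 30%; 0 = under 10%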; conditions: dose 6.3 g ai/10a, 21st day after application
Procedure: (§3) (Test on Crop Plant Selectivity by Upland Field Soil Treatment)
(§4) In a plastic pot (surface area: 600 cm^2) filled with sand, wheat (Tr), Diaitaria ciliaris (Di), green foxtail (Se), pale smartweed (Po), slender amaranth (Am), common lambsquarters (Ch) and China jute (Ab) were sown and covered with soil. […] The plants were then cultured in a green house, and the evaluation of the herbicidal effects and phytotoxicity was conducted on the 21st day after the application in accordance with the standards as identified in Table 47. Symbol—represents “not tested”.

Structure (SMILES)	Herbicidal effects Am
C#CCOc1cc(Cl)cc(F)c1-c1ccc(C(F)(F)F)n(C)c1=O [1′-4]	5

tested on: common lambsquarters (Ch); assay: as above; assay type: in vivo; parameters: scale not given here; conditions: dose 6.3 g ai/10a, 21st day after application
Procedure: as §3, §4

Structure (SMILES)	Herbicidal effects Ch
C#CCOc1cc(Cl)cc(F)c1-c1ccc(C(F)(F)F)n(C)c1=O [1′-4]	5

tested on: green foxtail (Se); assay: as above; assay type: in vivo; parameters: scale not given here; conditions: dose 6.3 g ai/10a, 21st day after application
Procedure: as §3, §4

Structure (SMILES)	Herbicidal effects Se
C#CCOc1cc(Cl)cc(F)c1-c1ccc(C(F)(F)F)n(C)c1=O [1′-4]	5

tested on: China jute (Ab); assay: as above; assay type: in vivo; parameters: scale not given here; conditions: dose 6.3 g ai/10a, 21st day after application
Procedure: as §3, §4

Structure (SMILES)	Herbicidal effects Ab
C#CCOc1cc(Cl)cc(F)c1-c1ccc(C(F)(F)F)n(C)c1=O [1′-4]	5

tested on: pale smartweed (Po); assay: as above; assay type: in vivo; parameters: scale not given here; conditions: dose 6.3 g ai/10a, 21st day after application
Procedure: as §3, §4

Structure (SMILES)	Herbicidal effects Po
C#CCOc1cc(Cl)cc(F)c1-c1ccc(C(F)(F)F)n(C)c1=O [1′-4]	5

tested on: slender amaranth (Am); assay: Test Example 7: crop plant selectivity by upland field soil treatment (corn), herbicidal effects; assay type: in vivo; parameters: scale not given here; conditions: dose 6.3 g ai/10a, 21st day after application
Procedure: as §3
(§5) In a plastic pot (surface area: 600 cm^2) filled with sand, corn (Ze), green foxtail (Se), pale smartweed (Po), slender amaranth (Am), common lambsquarters (Ch) and China jute (Ab) were sown and covered with soil. […] The plants were then cultured in a green house, and the evaluation of the herbicidal effects and phytotoxicity was conducted on the 21st day after the application in accordance with the standards as identified in Table 47.

Structure (SMILES)	Herbicidal effects Am
C#CCOc1cc(Cl)cc(F)c1-c1ccc(C(F)(F)F)n(C)c1=O [1′-4]	5

tested on: common lambsquarters (Ch); assay: as above; assay type: in vivo; parameters: scale not given here; conditions: dose 6.3 g ai/10a, 21st day after application
Procedure: as §3, §5

Structure (SMILES)	Herbicidal effects Ch
C#CCOc1cc(Cl)cc(F)c1-c1ccc(C(F)(F)F)n(C)c1=O [1′-4]	5

Source: patent US6472348B1, “Pyridone derivatives and herbicides” (Kumiai Chemical Industry Co., Ltd., priority 1996, dated 2002)
